From patent US9637472B2, “Substituted 6,5-fused bicyclic heteroaryl compounds” (Epizyme, Inc., priority 2011, dated 2017) come the findings set out here.

Each structure is given as a SMILES string.

Sequence of EZH2 (Q15910 other isoform, or with tags, fused parts or gaps): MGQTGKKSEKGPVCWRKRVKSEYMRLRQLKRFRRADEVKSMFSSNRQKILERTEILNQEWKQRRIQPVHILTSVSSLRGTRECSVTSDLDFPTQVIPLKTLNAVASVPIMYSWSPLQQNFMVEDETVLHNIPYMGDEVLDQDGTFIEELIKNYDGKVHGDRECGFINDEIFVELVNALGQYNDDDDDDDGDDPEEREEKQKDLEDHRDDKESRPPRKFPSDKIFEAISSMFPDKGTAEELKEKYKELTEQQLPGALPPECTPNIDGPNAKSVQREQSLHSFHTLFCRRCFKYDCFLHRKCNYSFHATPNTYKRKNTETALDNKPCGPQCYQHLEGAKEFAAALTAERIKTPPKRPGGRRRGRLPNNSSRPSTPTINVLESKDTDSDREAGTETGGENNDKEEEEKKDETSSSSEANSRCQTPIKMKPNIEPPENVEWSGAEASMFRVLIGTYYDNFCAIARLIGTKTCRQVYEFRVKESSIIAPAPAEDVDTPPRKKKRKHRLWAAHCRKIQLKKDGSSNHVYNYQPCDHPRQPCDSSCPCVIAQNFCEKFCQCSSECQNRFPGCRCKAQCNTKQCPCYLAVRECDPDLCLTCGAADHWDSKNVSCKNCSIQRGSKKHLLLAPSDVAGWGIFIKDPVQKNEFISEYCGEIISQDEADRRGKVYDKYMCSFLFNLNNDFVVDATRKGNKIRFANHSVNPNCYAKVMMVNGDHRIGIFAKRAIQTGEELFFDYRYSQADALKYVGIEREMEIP
Sequence of EZH2 (O75530 whole entry partner): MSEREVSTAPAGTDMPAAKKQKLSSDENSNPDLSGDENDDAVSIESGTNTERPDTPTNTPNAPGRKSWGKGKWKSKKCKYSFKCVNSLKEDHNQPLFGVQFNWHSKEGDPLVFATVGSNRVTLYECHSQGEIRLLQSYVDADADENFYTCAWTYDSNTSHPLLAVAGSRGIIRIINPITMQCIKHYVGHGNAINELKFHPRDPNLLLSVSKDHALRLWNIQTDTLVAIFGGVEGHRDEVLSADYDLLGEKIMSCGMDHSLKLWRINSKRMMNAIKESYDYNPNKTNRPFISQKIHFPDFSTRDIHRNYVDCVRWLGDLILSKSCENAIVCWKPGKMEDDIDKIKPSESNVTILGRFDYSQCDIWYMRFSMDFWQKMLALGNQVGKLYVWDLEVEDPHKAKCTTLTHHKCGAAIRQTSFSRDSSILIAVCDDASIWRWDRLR
Sequence of EZH2 (Q15022 whole entry partner): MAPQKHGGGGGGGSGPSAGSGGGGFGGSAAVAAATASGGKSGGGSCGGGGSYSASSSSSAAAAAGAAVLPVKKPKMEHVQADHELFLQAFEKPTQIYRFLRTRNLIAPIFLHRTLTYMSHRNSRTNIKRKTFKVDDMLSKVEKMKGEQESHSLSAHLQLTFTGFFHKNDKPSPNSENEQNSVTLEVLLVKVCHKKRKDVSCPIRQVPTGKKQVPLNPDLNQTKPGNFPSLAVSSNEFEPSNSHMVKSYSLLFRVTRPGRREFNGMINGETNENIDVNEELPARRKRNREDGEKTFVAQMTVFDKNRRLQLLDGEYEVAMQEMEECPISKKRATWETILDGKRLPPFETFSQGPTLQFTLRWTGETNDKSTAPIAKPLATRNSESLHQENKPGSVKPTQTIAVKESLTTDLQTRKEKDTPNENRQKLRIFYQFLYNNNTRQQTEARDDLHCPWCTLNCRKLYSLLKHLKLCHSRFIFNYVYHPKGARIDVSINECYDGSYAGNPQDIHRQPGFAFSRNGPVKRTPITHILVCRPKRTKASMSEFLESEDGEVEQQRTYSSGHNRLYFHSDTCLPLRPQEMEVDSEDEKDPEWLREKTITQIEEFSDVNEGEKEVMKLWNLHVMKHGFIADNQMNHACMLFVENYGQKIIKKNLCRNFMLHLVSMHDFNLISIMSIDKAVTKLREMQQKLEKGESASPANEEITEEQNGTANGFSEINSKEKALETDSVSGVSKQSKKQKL
Sequence of EZH2 (Q09028 whole entry partner): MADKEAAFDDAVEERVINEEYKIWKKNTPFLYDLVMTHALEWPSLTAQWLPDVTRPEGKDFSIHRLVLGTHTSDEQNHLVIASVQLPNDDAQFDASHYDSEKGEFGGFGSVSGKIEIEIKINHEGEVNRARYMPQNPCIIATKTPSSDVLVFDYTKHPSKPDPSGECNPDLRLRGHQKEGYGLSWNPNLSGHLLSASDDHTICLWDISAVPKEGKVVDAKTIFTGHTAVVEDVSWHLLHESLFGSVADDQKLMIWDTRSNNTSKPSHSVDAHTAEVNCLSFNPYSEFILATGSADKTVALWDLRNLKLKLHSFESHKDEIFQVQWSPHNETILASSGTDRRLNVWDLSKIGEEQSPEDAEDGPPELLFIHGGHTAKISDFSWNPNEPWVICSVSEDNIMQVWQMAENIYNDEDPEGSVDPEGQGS

The target in the test is EZH2 (Homo sapiens (Human), UniProt Q15910). The test is described as follows: PRC2 enzyme assay on peptide substrates. The following applies: PRC2 enzyme assays on peptide substrates; 4 nM enzyme, 30 min preincubation at 25° C.; read-out: EZH2 IC50. The format is biochemical. The source says:
General Materials. S-adenosylmethionine (SAM), S-adenosylhomocyteine (SAH), bicine, KCl, Tween20, dimethylsulfoxide (DMSO) and bovine skin gelatin (BSG) were purchased from Sigma-Aldrich at the highest level of purity possible. Dithiothreitol (DTT) was purchased from EMD. ^3H-SAM was purchased from American Radiolabeled Chemicals with a specific activity of 80 Ci/mmol. 384-well streptavidin Flashplates were purchased from PerkinElmer.
Substrates. […] The sequences are listed below.
Recombinant PRC2 Enzymes. Human PRC2 enzymes were purified as 4-component enzyme complexes co-expressed in Spodoptera frugiperda (sf9) cells using a baculovirus expression system. The subunits expressed were wild-type EZH2 (NM_004456) or EZH2 Y641F, N, H, S or C mutants generated from the wild-type EZH2 construct, EED (NM_003797), Suz12 (NM_015355) and RbAp48 (NM_005610). The EED subunit contained an N-terminal FLAG tag that was used to purify the entire 4-component complex from sf9 cell lysates.
General Procedure for PRC2 Enzyme Assays on Peptide Substrates. The assays were all performed in a buffer consisting of 20 mM bicine (pH=7.6), 0.5 mM DTT, 0.005% BSG and 0.002% Tween20, prepared on the day of use. […] DMSO (1 μL) was added to columns 11, 12, 23, 24, rows A-H for the maximum signal control, and SAH, a known product and inhibitor of PRC2 (1 μL) was added to columns 11, 12, 23, 24, rows I-P for the minimum signal control. A cocktail (40 μL) containing the wild-type PRC2 enzyme and H3K27me0 peptide or any of the Y641 mutant enzymes and H3K27me2 peptide was added by Multidrop Combi (Thermo). The compounds were allowed to incubate with PRC2 for 30 min at 25° C., then a cocktail (10 μL) containing a mixture of non-radioactive and ^3H-SAM was added to initiate the reaction (final volume=51 μL). […] The assays were stopped by the addition of non-radioactive SAM (10 μL) to a final concentration of 600 μM, which dilutes the ^3H-SAM to a level where its incorporation into the peptide substrate is no longer detectable. 50 μL of the reaction in the 384-well polypropylene plate was then transferred to a 384-well Flashplate and the biotinylated peptides were allowed to bind to the streptavidin surface for at least 1 h before being washed three times with 0.1% Tween20 in a Biotek ELx405 plate washer. The plates were then read in a PerkinElmer TopCount platereader to measure the quantity of ^3H-labeled peptide bound to the Flashplate surface, measured as disintegrations per minute (dpm) or alternatively, referred to as counts per minute (cpm).
Where dpm=disintegrations per minute, cmpd=signal in assay well, and min and max are the respective minimum and maximum signal controls.
Where top and bottom are the normally allowed to float, but may be fixed at 100 or 0 respectively in a 3-parameter fit. The Hill Coefficient normally allowed to float but may also be fixed at 1 in a 3-parameter fit. Y is the % inhibition and X is the compound concentration.
As for `Cc1ccc(-n2ncc3c(C(=O)NCc4c(C)cc(C)[nH]c4=O)cc(-c4ccc(N5CCN(C)CC5)nc4)nc32)cc1` [Compound A-65], the IC50 lay in the range of 3 to 10 µM.
Next, `Cc1cc(C)c(CNC(=O)c2cc(-c3cccnc3N3CCNCC3)nc3c2cnn3C(C)C)c(=O)[nH]1` [Compound A-66]: 1 to 3 µM; `Cc1cc(C)c(CNC(=O)c2cc(-c3cccc(C(=O)O)c3)nc3c2cnn3C(C)C)c(=O)[nH]1` [Compound A-67]: 1 to 3 µM.
Next, `Cc1cc(C)c(CNC(=O)c2cc(-c3ccc(-c4ccccc4CN)nc3)nc3c2cnn3C(C)C)c(=O)[nH]1` [Compound A-68]: 3 to 10 µM.
For the compound `Cc1cc[nH]c(=O)c1CNC(=O)c1cc(-c2cccc(CN(C)CCN(C)C)c2)nc2c1cnn2C(C)C` [Compound A-70], the 50% inhibitory concentration (IC50) lay in the range of 3 to 10 µM.
Next, `CC(C)n1ncc2c(C(=O)NCc3cc4c([nH]c3=O)CCNC4)cc(-c3ccc4c(c3)OCCO4)nc21` [Compound A-71]: 10 to 50 µM.
Take `Cc1cc[nH]c(=O)c1CNC(=O)c1cc(-c2cccc(CN3CCN(C)CC3)c2)nc2c1cnn2C(C)C` [Compound A-72]: the 50% inhibitory concentration (IC50) was 10 to 50 µM.
Next, `Cc1cc(C)c(CN(C)C(=O)c2cc(-c3cccc(CN4CCN(C)CC4)c3)nc3c2cnn3C(C)C)c(=O)[nH]1` [Compound A-73]: 10 to 50 µM; `Cc1cc(C)n(C)c(=O)c1CNC(=O)c1cc(-c2cccc(CN(C)CCN(C)C)c2)nc2c1CNN2C(C)C` [Compound A-74]: 10 to 50 µM.
Next, `Cc1cc[nH]c(=O)c1CNC(=O)c1cc(-c2ccc3c(c2)OCCO3)nc2c1cnn2C(C)C` [Compound A-77]: 10 to 50 µM; `Cc1cc(C)c(CNC(=O)c2cc(-c3cccc(CNC(=O)OC(C)(C)C)c3)nc3c2cnn3C(C)C)c(=O)[nH]1` [Compound A-92]: 1 to 3 µM; `C=C(C)c1nn(C(C)C)c2nc(-c3ccc(CN4CCOCC4)cc3)cc(C(=O)NCc3c(C)cc(C)[nH]c3=O)c12` [Compound A-94]: 3 to 10 µM.
For `Cc1cc(C)c(CNC(=O)c2cc(-c3cccnc3N3CCN(C(=O)OC(C)(C)C)CC3)nc3c2cnn3C(C)C)c(=O)[nH]1` [Compound A-95], the half-maximal inhibitory concentration (IC50) lay within 3 to 10 µM.
For `Cc1cc(CO)c(CNC(=O)c2cc(-c3ccc(CN4CCOCC4)cc3)nc3c2cnn3C(C)C)c(=O)[nH]1` [Compound A-96], the IC50 is 3 to 10 µM.
Next, `Cc1cc(C)c(CNC(=O)c2cc(-c3ccccc3CNC(=O)OC(C)(C)C)nc3c2cnn3C(C)C)c(=O)[nH]1` [Compound A-98]: 10 to 50 µM; `Cc1ccc(CNC(=O)c2cc(-c3cccc(CN(C)CCN(C)C)c3)nc3c2cnn3C(C)C)c(=O)[nH]1` [Compound A-99]: 10 to 50 µM.
On to `Cc1ccc(CNC(=O)c2cc(-c3cccc(CN4CCN(C)CC4)c3)nc3c2cnn3C(C)C)c(=O)[nH]1` [Compound A-100], for which the IC50 was in the range of 10 to 50 µM.
Next, `Cc1cc(C)c(CNC(=O)c2cc(-c3ccc(N4CCN(C)CC4)nc3)nc3c2cnn3-c2ccccc2)c(=O)[nH]1` [Compound A-109]: 10 to 50 µM.
Regarding `CCc1ccc(CNC(=O)c2cc(-c3ccc4c(c3)OCCO4)nc3c2cnn3C(C)C)c(=O)[nH]1` [Compound A-110], the IC50 lay within 10 to 50 µM.
Turning to `CC1=CC(C)=C(CNC(=O)c2cc(-c3cccc(CNCCCN(C)C)c3)nc3c2cnn3C(C)C)C(C)N1` (centres unmarked) [Compound A-125], the 50% inhibitory concentration (IC50) is 1 to 3 µM.
On to `Cc1cc(C)c(CNC(=O)c2cc(-c3cccc(CNCCN4CCOCC4)c3)nc3c2cnn3C(C)C)c(=O)[nH]1` [Compound A-126], for which the IC50 was 0.3 to 1 µM.
Next, `Cc1cc(C)c(CNC(=O)c2cc(C3=CC(C)(C)NC(C)(C)C3)nc3c2cnn3C2CCN(Cc3ccccc3)CC2)c(=O)[nH]1` [Compound B-1, 1-(1-benzylpiperidin-4-yl)-N-((4,6-dimethyl-2-oxo-1,2-dihydropyridin-3-yl)methyl)-6-(2,2,6,6-tetramethyl-1,2,3,6-tetrahydropyridin-4-yl)-1H-pyrazolo[3,4-b]pyridine-4-carboxamide]: under 0.3 µM; `CC(=O)N1CCC(n2ncc3c(C(=O)NCc4c(C)cc(C)[nH]c4=O)cc(C4=CC(C)(C)NC(C)(C)C4)nc32)CC1` [Compound B-2, 1-(1-acetylpiperidin-4-yl)-N-((4,6-dimethyl-2-oxo-1,2-dihydropyridin-3-yl)methyl)-6-(2,2,6,6-tetramethyl-1,2,3,6-tetrahydropyridin-4-yl)-1H-pyrazolo[3,4-b]pyridine-4-carboxamide]: 0.3 to 1 µM.
In the case of `C=C(C)Cn1ncc2c(C(=O)NCc3c(C)cc(C)[nH]c3=O)cc(C3=CC(C)(C)NC(C)(C)C3)nc21` [Compound B-3, N-((4,6-dimethyl-2-oxo-1,2-dihydropyridin-3-yl)methyl)-1-(2-methylallyl)-6-(2,2,6,6-tetramethyl-1,2,3,6-tetrahydropyridin-4-yl)-1H-pyrazolo[3,4-b]pyridine-4-carboxamide], the IC50 lay in the range of 1 to 3 µM.
Next, `Cc1cc(C)c(CNC(=O)c2cc(C3=CC(C)(C)NC(C)(C)C3)nc3c2cnn3C2CCCC2)c(=O)[nH]1` [Compound B-5, 1-cyclopentyl-N-((4,6-dimethyl-2-oxo-1,2-dihydropyridin-3-yl)methyl)-6-(2,2,6,6-tetramethyl-1,2,3,6-tetrahydropyridin-4-yl)-1H-pyrazolo[3,4-b]pyridine-4-carboxamide]: under 0.3 µM.
Consider `Cc1cc(C)c(CNC(=O)c2cc(OC3CCN(C)CC3)nc3c2cnn3C(C)C)c(=O)[nH]1` [Compound B-6, N-((4,6-dimethyl-2-oxo-1,2-dihydropyridin-3-yl)methyl)-1-isopropyl-6-((1-methylpiperidin-4-yl)oxy)-1H-pyrazolo[3,4-b]pyridine-4-carboxamide], for which the half-inhibitory concentration (IC50) was 0.3 to 1 µM.
Next, `Cc1cc(C)c(CNC(=O)c2cc(C3CCN(C(=O)C4CN(C)C4)CC3)nc3c2cnn3C(C)C)c(=O)[nH]1` [Compound B-8, N-((4,6-dimethyl-2-oxo-1,2-dihydropyridin-3-yl)methyl)-1-isopropyl-6-(1-(1-methylazetidine-3-carbonyl)piperidin-4-yl)-1H-pyrazolo[3,4-b]pyridine-4-carboxamide]: under 0.3 µM.
Next, `Cc1cc(C)c(CNC(=O)c2cc(N3CCN(C)CC3)nc3c2cnn3C(C)C)c(=O)[nH]1` [Compound B-9, N-((4,6-dimethyl-2-oxo-1,2-dihydropyridin-3-yl)methyl)-1-isopropyl-6-(4-methylpiperazin-1-yl)-1H-pyrazolo[3,4-b]pyridine-4-carboxamide]: 1 to 3 µM; `Cc1cc(C)c(CNC(=O)c2cc(N3CCC(O)CC3)nc3c2cnn3C(C)C)c(=O)[nH]1` [Compound B-11, N-((4,6-dimethyl-2-oxo-1,2-dihydropyridin-3-yl)methyl)-6-(4-hydroxypiperidin-1-yl)-1-isopropyl-1H-pyrazolo[3,4-b]pyridine-4-carboxamide]: 1 to 3 µM.
In the case of `Cc1cc(C)c(CNC(=O)c2c(Cl)c(C3=CC(C)(C)NC(C)(C)C3)nc3c2cnn3C(C)C)c(=O)[nH]1` [Compound B-12, 5-chloro-N-((4,6-dimethyl-2-oxo-1,2-dihydropyridin-3-yl)methyl)-1-isopropyl-6-(2,2,6,6-tetramethyl-1,2,3,6-tetrahydropyridin-4-yl)-1H-pyrazolo[3,4-b]pyridine-4-carboxamide], the 50% inhibitory concentration (IC50) is 1 to 3 µM.
Next, `Cc1cc(C)c(CNC(=O)c2cc(C3=CC(C)(C)NC(C)(C)C3)nc3c2c(C)nn3C(C)C)c(=O)[nH]1` [Compound B-13, N-((4,6-dimethyl-2-oxo-1,2-dihydropyridin-3-yl)methyl)-1-isopropyl-3-methyl-6-(2,2,6,6-tetramethyl-1,2,3,6-tetrahydropyridin-4-yl)-1H-pyrazolo[3,4-b]pyridine-4-carboxamide]: 0.3 to 1 µM.
In the case of `Cc1cc(C)c(CNC(=O)c2cc(C3=CC(C)(C)NC(C)(C)C3)nc3c2cnn3C2CCC2)c(=O)[nH]1` [Compound B-14, 1-cyclobutyl-N-((4,6-dimethyl-2-oxo-1,2-dihydropyridin-3-yl)methyl)-6-(2,2,6,6-tetramethyl-1,2,3,6-tetrahydropyridin-4-yl)-1H-pyrazolo[3,4-b]pyridine-4-carboxamide], the IC50 fell in the range of 0.3 to 1 µM.

The term IC50 denotes the midpoint of a concentration-inhibition curve.
